From paper PMC8885657, “HPV infection alters vaginal microbiome through down-regulating host mucosal innate peptides used by Lactobacilli as amino acid sources” (Nature Communications, 2022)

How the values were obtained:
[1] = tested on: defensin/elafin mRNA in immortalized human keratinocytes (HaCaT cells); test: RT-qPCR of innate peptide expression in non-infected immortalized keratinocytes (TNFα/LPS, siRNA, inhibitors); type: cell-based; conditions: for Elafin expression / HBD2 expression / HBD3 expression / HBD4 expression: siGL3, TNF alpha +
[2] = tested on: innate peptide mRNA (SLPI, S100A7, Elafin, HBD1-4, HD-5, HD-6) in CTRL and E6E7 cells; test: RT-qPCR of innate peptide expression in CTRL and E6E7 keratinocytes, Control / LPS / TNF alpha (Fig 2D); type: cell-based, human;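 further: mRNA level normalized to HPRT mRNA of the same sample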

## TNFα
[1]; immortalized keratinocytes, TNFα 20 ng/ml, normalized to HPRT, n = 4
  HβD2-4 expression (RT-qPCR): highly stimulated
[1]; replicate 1
  Elafin expression: 6.99
  HBD2 expression: 14.1
  HBD3 expression: 4.31
  HBD4 expression: 5.27
[1]; replicate 2
  Elafin expression: 3.11
  HBD2 expression: 7.45
  HBD3 expression: 7.5
  HBD4 expression: 1.23
[1]; replicate 3
  Elafin expression: 6.23
  HBD2 expression: 7.27
  HBD3 expression: 4.03
  HBD4 expression: 3.86
[2]; CTRL cells, replicate 1
  Elafin expression: 5.073
  HBD1 expression: 0.2367
  HBD2 expression: 3.658
  HBD3 expression: 3.171
  HBD4 expression: 2.287
  HD-5 expression: 0.3567
  HD-6 expression: 1.388
  S100A7 expression: 0.722
  SLPI expression: 0.646
[2]; CTRL cells, replicate 2
  Elafin expression: 4.065
  HBD1 expression: 1.168
  HBD2 expression: 4.597
  HBD3 expression: 4.307
  HBD4 expression: 2.172
  HD-5 expression: 2.274
  HD-6 expression: 2.604
  S100A7 expression: 0.3271
  SLPI expression: 2.0642
[2]; CTRL cells, replicate 3
  Elafin expression: 7.706
  HBD1 expression: 0.2415
  HBD2 expression: 6.118
  HBD3 expression: 2.998
  HBD4 expression: 5.397
  HD-5 expression: 2.494
  HD-6 expression: 1.116
  S100A7 expression: 1.785
  SLPI expression: 1.2988
[2]; CTRL cells, replicate 4
  Elafin expression: 14.6325
  HBD1 expression: 1.1843
  HBD2 expression: 11.5149
  HBD3 expression: 3.1783
  HBD4 expression: 3.11
  HD-5 expression: 8.229
  HD-6 expression: 1.904
  S100A7 expression: 0.4855
  SLPI expression: 0.7519
[2]; E6E7 cells, replicate 1
  Elafin expression: 0.006506
  HBD1 expression: 0.08614
  HBD2 expression: 2.123
  HBD3 expression: 0.6511
  HBD4 expression: 0.3771
  HD-5 expression: 0.1042
  HD-6 expression: 1.213
  S100A7 expression: 1.453e-5
  SLPI expression: 0.0293
[2]; E6E7 cells, replicate 2
  Elafin expression: 0.03758
  HBD1 expression: 0.1065
  HBD2 expression: 0.4899
  HBD3 expression: 2.311
  HBD4 expression: 0.789
  HD-5 expression: 1.126
  HD-6 expression: 0.08436
  S100A7 expression: 1.453e-5
  SLPI expression: 0.1199
[2]; E6E7 cells, replicate 3
  Elafin expression: 0.01347
  HBD1 expression: 0.06181
  HBD2 expression: 2.314
  HBD3 expression: 0.09282
  HBD4 expression: 1.611
  HD-5 expression: 0.8629
  HD-6 expression: 0.3418
  S100A7 expression: 8.731e-6
  SLPI expression: 0.005195
[2]; E6E7 cells, replicate 4
  Elafin expression: 0.01173
  HBD1 expression: 0.009073
  HBD2 expression: 0.5342
  HBD3 expression: 0.8751
  HBD4 expression: 0.9721
  HD-5 expression: 1.847
  HD-6 expression: 0.557
  S100A7 expression: 8.0162e-6
  SLPI expression: 0.029
